Measurements reported in patent publication US20140378460A1, “COMPOSITIONS AND METHODS FOR TREATING NEURODEGENERATIVE DISEASE” (COGNITION THERAPEUTICS, INC., priority 2011, published 2014).
Where two headings read alike, the source gives them in different places.

Assays:
sigma-2 receptor [1] = molecular target: T1, sigma-2 receptor (Rattus norvegicus, UniProt Q5U3Y7); set-up: other: known prior art compounds, published studies; details: cited from earlier work
T1 sequence (Q5U3Y7 1-176): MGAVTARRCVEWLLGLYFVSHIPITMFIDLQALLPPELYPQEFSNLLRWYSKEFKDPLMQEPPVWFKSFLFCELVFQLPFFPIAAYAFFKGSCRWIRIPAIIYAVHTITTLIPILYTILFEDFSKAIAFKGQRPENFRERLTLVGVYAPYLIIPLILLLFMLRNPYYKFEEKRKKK

[2] = test system: Abeta oligomer-induced membrane trafficking deficits in primary hippocampal neurons; assay: Membrane trafficking/exocytosis (MTT) assay; type: cell-based, rat; details: for IC50: read-out: Membrane trafficking IC50
Method: The methods used to generate the results were as follows in the Membrane Trafficking/Exocytosis (MTT) assay.
Primary hippocampal neurons from E18 Sprague-Dawley rat embryos were plated at optimized concentrations in 384 well plates in NB media (Invitrogen). Neurons were maintained in cultures for 3 weeks, with twice weekly feeding of NB media with N2 supplement (Invitrogen).
A test compound was added to cells at concentrations ranging from 100 uM to 0.001 nM followed by addition of vehicle or Abeta oligomer preparations (3 μM total Abeta protein concentration), and incubated for 1 to 24 hr at 37° C. in 5% CO2. MTT reagent (3-(4,5-dimethylthizaol-2-yl)-2,5diphenyl tetrazolium bromide) (Roche Molecular Biochemicals) was reconstituted in phosphate buffered saline to 5 mg/mL. 10 μl, of MTT labeling reagent is added to each well and incubated at 37° C. for 1 h, then imaged. Exocytosis was assessed by automated microscopy and image processing to quantify the amount of endocytosed and exocytosed formazan.
Each assay plate was formatted so that compounds are tested with and without Abeta oligomer on each plate.

Sigma-1 receptors [3] = details: known prior art compounds; cited from earlier work
Sigma-1 receptors [4] = molecular target: T2, Sigma-1 receptors (UniProt Q60492); details: cited from earlier work
T2 construct: other: known prior art compounds, published studies

Sigma-1 receptors [5] = molecular target: Sigma-1 receptors (Homo sapiens, UniProt Q99720); assay: Sigma-1 competitive radioligand binding, [3H](+)pentazocine, Jurkat cell membranes
Sequence of Sigma-1 receptors (Homo sapiens, UniProt Q99720) (Q99720 whole entry): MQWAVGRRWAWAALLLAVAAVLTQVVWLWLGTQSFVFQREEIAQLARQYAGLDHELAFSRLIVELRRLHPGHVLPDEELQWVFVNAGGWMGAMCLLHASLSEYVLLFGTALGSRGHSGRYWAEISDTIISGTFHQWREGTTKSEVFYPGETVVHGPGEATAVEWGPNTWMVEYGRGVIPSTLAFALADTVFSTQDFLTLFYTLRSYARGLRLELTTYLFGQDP
Method: (§1) Reactions were terminated by rapid filtration through Whatman GF/C filters using a Brandel 12R cell harvester followed by two washes with ice-cold buffer. Radioactivity on the dried filter discs was measured using a liquid scintillation analyzer (Tri-Carb 2900TR; PerkinElmer Life and Analytical Sciences). The displacement curves were plotted and the Ki values of the test ligands for the receptor subtypes were determined using GraphPad Prism (GraphPad Software Inc., San Diego, Calif.). The percentage specific binding was determined by dividing the difference between total bound (disintegrations per minute) and nonspecific bound (disintegrations per minute) by the total bound (disintegrations per minute).

sigma-2 receptor [6] = molecular target: T1, sigma-2 receptor; assay: Sigma-2 competitive radioligand binding, [3H]DTG with 300 nM (+)pentazocine, rat cerebral cortex membranes
Method: as §1

[7] = test system: Abeta oligomer-induced synapse loss in primary hippocampal neurons; assay: Synapse loss assay; type: cell-based, rat; details: for Block synapse loss: Table 11B
Method: In this assay, Abeta oligomers were brought in contact with mature primary neurons in culture and their binding was determined by immunohistochemistry (anti-Abeta antibody) and quantified by image processing. The amount of Abeta in neuronal dendrites is assessed by counting the number of labeled puncta on the neuritis. […] This labeling is associated with synapses, co-localizing with the post-synaptic scaffold protein PSD-95 (Lacor et al., '04). […] The number of synapses can also be quantified in this assay by immunofluorochemistry. Similar procedures for binding assays can be found in the literature. […] Review.
Primary hippocampal neuronal culture was established as in the membrane trafficking assay above. […] Pretreatment with compounds to be tested lasted for 1 hr and addition of Abeta oligomers or no oligomer (vehicle alone) in a final concentration of 70 ul was followed by incubation for an additional 23 hrs.
The plates were then washed 3× with PBS for 5 min each. The plates were blocked at RT for 1 hr in 5% goat serum and 0.5% Triton X-100 in PBS. […] Primary antibodies were incubated overnight at 4° C. The plates were then washed 3× with PBS for 5 min each. […] Secondary antibodies were incubated at RT for 1 hr. The plates were washed once with PBS. DAPI (4′,6-diamidino-2-phenylindole, Invitrogen) was then applied at 0.03 ug/ul and incubated at RT for 5 min, then washed with PBS.

[8] = test system: SKOV-3 human ovarian cancer cell line; assay: MTS tumor cell viability assay; type: cell-based; details: by EC50 relative to siramesine
Method: The cytotoxicity of compounds shown below was determined using the CellTiter96 Aqueous One Solution Assay (Promega, Madison, Wis.). […] The plate was read at 490 nm in a Victor3 plate reader (PerkinElmer Life and Analytical Sciences, Shelton, Conn.). The EC^50 value, defined as the concentration of the sigma ligand required to inhibit cell viability by 50% relative to untreated cells, was determined from the dose response curve for each cell line.

[9] = test system: caspase-3 in neuronal cultures; assay: Caspase-3 activity in neurons; type: cell-based
[10] = test system: caspase-3 in SKOV-3 human ovarian cancer cells; assay: Caspase-3 activity in tumor cells; type: cell-based
[11] = known prior art compounds, published studies, read-out: Sigma 2 Binding Ki
[12] = Table 11C, known prior art compounds, read-out: Inhibition Abeta oligomer-induced Membrane Trafficking EC50
[13] = known prior art compounds, published studies, read-out: Sigma 1 Binding Ki
[14] = dosed prior to Abeta oligomer addition, read-out: EC50 in inhibiting amyloid beta effect in Cell Measured by Membrane Trafficking Assay
[15] = Table 11C, read-out: S1 binding Ki
[16] = Table 11D, read-out: Sigma-1 Receptor Ki
[17] = Sigma 1 Binding Ki (nM), Table 2, own compounds
[18] = Sigma 2 Binding Ki (nM), Table 2, own compounds

O=C(OCCN1CCOCC1)C1(c2ccccc2)CCCCC1 [PRE-84]
Ki (sigma-2 receptor [1]; [11]): 13100 nM | Activity in membrane trafficking assay [2]: inactive | Max Inhibition of Abeta (%) [2]: 38% | Functional Neuronal Phenotype ([2]; Table 11C): Inactive | EC50 [2, 12]: > 30000 nM | Sigma 1 (Type of Activity) (Sigma-1 receptors [3]): (agonist)

CCCN(CCC)CCc1ccc(OC)c(OCCc2ccccc2)c1 [NE100]
Ki (sigma-2 receptor [1]; [11]): 170 nM | Ki (Sigma-1 receptors [4]; [13]): 1.1 nM | Sigma 1 (Type of Activity) (Sigma-1 receptors [3]): (antagonist)

COc1cc(CCC(C)NCc2ccc(C(F)(F)F)cc2)ccc1O (single isomer, unassigned; (+)) [(+) enantiomer]
EC50 [2, 14]: 5600 nM

CNC(C)CCc1ccc(O)c(OC)c1 (stereo not shown) [Entry 5]
EC50 ([2]; scaffold drawing 245, R' varied, read-out: Membrane Trafficking EC50): 30000 nM

COc1cc(CCC(C)NCc2ccc(C(F)(F)F)cc2)ccc1O (single isomer, unassigned; (-)) [(−) enantiomer]
EC50 [2, 14]: 10900 nM

c1ccc(CCCCN2CCC(c3ccccc3)CC2)cc1 [PPBP]
Functional Neuronal Phenotype ([2]; Table 11C): Antagonist | EC50 [2, 12]: 10900 nM | Functional Neuronal Phenotype ([2]; Table 11D): Antagonist | IC50 ([2]; Table 11D): 10900 nM | Ki (Sigma-1 receptors [4]; [15]): 0.8 nM | Ki (Sigma-1 receptors [4]; [16]): 0.8 nM | Ki (Sigma-1 receptors [4]; [13]): 0.8 nM | Sigma 1 (Type of Activity) (Sigma-1 receptors [3]): (agonist)

CC(C)=CC(C[C@H](C)c1ccc(C)cc1)NCC(C)C (stereo partly shown) [Compound IXa]
Ki (Sigma-1 receptors [5]): 89 nM | Max Inhibition of Abeta (%) [2]: 76% | EC50 ([2]; Rattus norvegicus, Hippocampal neuron, dosed prior to Abeta oligomer addition, read-out: EC50 in inhibiting amyloid beta effect in Cell Measured by Membrane Trafficking Assay): 4900 nM | Ki (sigma-2 receptor [6]): 21 nM

COc1cc(CCC(C)NCc2ccc(C(F)(F)F)cc2)ccc1O (single isomer, unassigned) [II (−) isomer]
Block synapse loss [7]: 0% | Ki (Sigma-1 receptors [5]; S1 binding Ki (nM), Table 11B): 46 nM | Ki (Sigma-1 receptors [5]; [17]): 46 nM | Functional Neuronal Phenotype ([2]; Table 11B): Antagonist | Ki (sigma-2 receptor [6]; S2 binding Ki (nM), Table 11B): 63 nM | Ki (sigma-2 receptor [6]; [18]): 63 nM

CC(C(O)c1ccc(O)cc1)N1CCC(Cc2ccccc2)CC1 (stereo not shown) [Ifenprodil]
Max Inhibition of Abeta (%) [2]: 38% | EC50 ([2]; Rattus norvegicus, Hippocampal neuron, Table 11C, known prior art compounds, read-out: Inhibition Abeta oligomer-induced Membrane Trafficking EC50): > 20000 nM | Functional Neuronal Phenotype ([2]; Table 11C): Inactive

COc1cc2c(cc1OC)CN(CCCCNC(=O)c1cc(C)ccc1OC)CC2 [RHM-1, N-[4-(3,4-dihydro-6,7-dimethoxyisoquinolin-2(1H)-yl)butyl]-2-methoxy-5-methylbenzamide]
Nuclear morphology / nuclear intensity in neurons (neuronal cultures): did not decrease nuclear intensity | Action [8]: Antagonist | Effect on Abeta oligomer trafficking deficits over the concentrations tested [2]: blocks oligomer-induced trafficking deficits at all concentrations tested | Caspase-3 activity induced in neurons [9]: did not induce caspase-3 activity | Block of SV-119-induced caspase-3 activation in tumor cells [10]: do not block caspase-3 activation | Caspase-3 activity induced in tumor cells [10]: did not induce caspase-3 activity

CCCN(CCC)CCc1ccc(OC)c(OCCc2ccccc2)c1 [NE 100]
Ki (sigma-2 receptor [1]; Table 11C, read-out: S2 binding Ki): 170 nM | Ki (sigma-2 receptor [1]; Table 11D, read-out: Sigma-2 Receptor Ki): 170 nM | Max Inhibition of Abeta (%) [2]: 98% | Functional Neuronal Phenotype ([2]; Table 11C): Antagonist | EC50 [2, 12]: 1300 nM | Functional Neuronal Phenotype ([2]; Table 11D): Antagonist | IC50 ([2]; Table 11D): 1300 nM | Ki (Sigma-1 receptors [4]; [15]): 1.1 nM | Ki (Sigma-1 receptors [4]; [16]): 1.1 nM

CN1CCN(CCc2ccc(Cl)c(Cl)c2)CC1 [BD1063]
Functional Neuronal Phenotype ([2]; Table 11C): Inactive | EC50 [2, 12]: > 30000 nM | Ki (Sigma-1 receptors [4]; [15]): 8.8 nM | Ki (Sigma-1 receptors [4]; [13]): 8.8 nM | Sigma 1 (Type of Activity) (Sigma-1 receptors [3]): (antagonist)

CCCN(CCC)CCc1ccc(OC)c(OCCc2ccccc2)c1 [NE-100]
Effect on Abeta oligomer-induced synapse loss [7]: completely eliminated synapse loss

COc1cc(CCC(C)NCc2ccc(C(F)(F)F)cc2)ccc1O (single isomer, unassigned) [II (+) isomer]
Block synapse loss [7]: 47% | Ki (Sigma-1 receptors [5]; S1 binding Ki (nM), Table 11B): 100 nM | Ki (Sigma-1 receptors [5]; [17]): 100 nM | EC50 ([2]; Rattus norvegicus, Hippocampal neuron, Table 11B, read-out: Inhibition Abeta oligomer-induced Membrane Trafficking EC50): 5600 nM | Functional Neuronal Phenotype ([2]; Table 11B): Antagonist | Ki (sigma-2 receptor [6]; S2 binding Ki (nM), Table 11B): 80 nM | Ki (sigma-2 receptor [6]; [18]): 52 nM
